Here are results for three molecules from US20130023504A1, “Modulation of Prostaglandin/Cyclooxygenase Metabolic Pathways” (HUNTER-FLEMING LIMITED, priority 2006, published 2013).

Common to all, as to format: cell-based
One assay concerns PC-12 cells. As to the kind of experiment: Ischaemia (oxygen-glucose deprivation)-induced cell death in NGF-differentiated PC-12 cells, Trypan Blue exclusion. The conditions noted are these: for decrease in cell death: vs. ischemia alone. The method, then:
PC-12 cells were maintained on flasks coated with Collagen typel in PC-12 media with the following composition; RPMI 1640 without L-glutamine with 2 mM L-glutamine, 10 mM HEPES, 1 mM Sodium Pyruvate, additional glucose to give a final concentration of 4.5 g/L (RPMI normally has 2 g/L), 10% heat inactivated horse serum, 5% foetal calf serum and 50 units of penicillin/streptomycin. Media was changed every 2 days.
Confluent cultures of PC-12 cells were differentiated by culturing for 7 days in PC-12 medium without serum but with 50 ng/mlNGF (PC-12 NGF media). The cells were harvested, washed, counted and 1×10^5 PC-12 cells/well were plated overnight in a micro titre plate in glucose free PC-12 NGF medium. The medium was then changed to glucose-free PC-12 NGF medium containing the compounds to be tested and the plates left under normoxic conditions for 30 minutes.
During this stage, the media and test substances for the anoxic exposure were placed in a chamber and de-oxygenated with 95% N2/5% CO2. The media in the plates was changed with the de-oxygenated media and the plates then placed in an anaerobic chamber gassed with 95% N2 5% CO2 for 10 minutes before being sealed and incubated at 37° C. overnight (18 hours). For normoxia controls, the cells were treated identically to ischemic treatments except that all incubations were in 5% CO2/95% air.
Viability was determined using Trypan Blue exclusion.

Assay [1] relates to rat sensory neurones. As to the kind of experiment: Neurite growth of sensory neurones in primary culture (anti β-Tubulin, In Cell Analyzer). The method, then:
Rat sensory neurones were prepared according to the method described by Hall et al. 1997 (Hall A K, Ai X, Hickman G E, MacPhedran S E, Nduaguba C O, Robertson C P. The generation of neuronal heterogeneity in a rat sensory ganglion. J. Neurosci. 1997 Apr. 15; 17(8):2775-84). Briefly, female rats (15 days gestation) were killed by cervical dislocation (Rats Wistar; Janvier, Le Genest-St-Isle, France) and the foetuses removed from the uterus. Their spinal cords with the dorsal root ganglia (DRG) were removed and placed in ice-cold medium of Leibovitz (L15, Fisher 11415-049) containing Penicillin 50 Ul/ml-Streptomycin 50 pg/ml (PS, 1%) and bovine serum albuminutes (BSA 1%, Sigma A6003). The DRG were recovered and dissociated by trypsinisation for 20 minutes at 37° C. (trypsin EDTA 10×, 10%, Fisher 15400054) diluted in PBS without calcium and magnesium (Fisher 2007-03). The reaction was stopped by addition of Dulbecco modified Eagle medium (DMEM, Fisher 21969-035) containing DNase I grade II (0.1 mg/ml Roche diagnostic 104159) and foetal bovine serum (FBS 10%, Fisher 10270-098). The cell suspension was triturated with a 10 ml pipette and centrifuged at 350×g for 10 minutes at room temperature. The pellet of dissociated cells was then resuspended in defined culture medium.
Viable cells were counted in a Neubauer cytometer using the trypan blue exclusion test (Sigma) and seeded at a density of 25 000 cells/well in 96 well-plates (Nunc). Wells were pre-coated with poly-L-lysine (10 μg/ml, Sigma P2636) in ultra pure sterile water (Merck Eurolab 60759.01).
Cells were allowed to adhere for 2 hours and maintained in a humidified incubator at 37° C. in 5% CO2/95% air atmosphere.
The culture medium was changed into a defined culture medium after a 12 hours incubation period following the conditions described below:
NGF 50 ng/ml and 10 ng/ml (in 0.1% DMSO)
After 6 hours, 12 hours and 24 hours of incubation with 7β-OH EPIA, cells were fixed for 5 minutes in an ethanol/acetic acid solution (95%/5%) at −20° C. and rinsed 3 times in PBS.
Motor neurones and sensory neurones were labelled by monoclonal anti β-Tubulin antibody (Sigma T8660) diluted at 1:400 in incubation solution (PBS with 5% of FCS and 0.1% of saponin, Sigma S-7900). This antibody specifically labels neurone cell bodies and neurites.
After 2 hours of incubation, the cells were washed in PBS and incubated with Alexa Fluor 488 goat anti mouse IgG (Molecular Probes A11001) diluted at 1:300 in incubation solution to reveal the 8-Tubulin III antibodies.
Analysis of the total length of neurones labelled with anti β-Tubulin antibodies (neurones) were carried out using In Cell Analyzer 1000 3.2.Workstation software.
The results were expressed in percentage compared to the vehicle. Comparison of groups was carried out using the unpaired T test.

Assay [2] concerns rat sensory neurones. As to the kind of experiment: Cisplatin-induced loss of neurite density in primary dorsal root ganglia sensory neurones (anti β-Tubulin). The conditions noted are these: 10 ng/ml, cisplatin 3 μg/ml. The method, then:
(§1) Primary cultures of dissociated dorsal root ganglia sensory neurones were incubated with 3 μg/ml cisplatin, with and without 7β-OH EPIA for 48 hours and 72 hours and the following parameters were evaluated:
neurite network density stained with an anti 8-Tubulin antibody
(§2) Rat sensory neurones were prepared according to the method described by Hall et al 1997 [Hall et al. (J. Neurosci. 1997 Apr. 15; 17(8); 2775-84]. Briefly, a female rat (15 days gestation) was killed by cervical dislocation (Rats Wistar; Janvier, Le Genest-St-lsle, France) and the foetuses removed from the uterus. Their spinal cords with the dorsal root ganglia (DRG) were removed and placed in ice-cold medium of Leibovitz (L15, Fisher 11415-049) containing Penicillin 50 UI/ml-Streptomycin 50 μg/ml (PS, 1%) and bovine serum albuminutes (BSA 1%, Sigma A6003). The DRG were recovered and dissociated by trypsinisation for 20 minutes at 37° C. (trypsin EDTA 10×, 10%, Fisher 15400054) diluted in PBS without calcium and magnesium (Fisher 2007-03). The reaction was stopped by addition of Dulbecco modified Eagle medium (DMEM, Fisher 21969-035) containing DNase I grade II (0.1 mg/ml Roche diagnostic 104159) and foetal bovine serum (FBS 10%, Fisher 10270-098). The cell suspension was triturated with a 10 ml pipette and centrifuged at 350×g for 10 minutes at room temperature. The pellet of dissociated cells was then resuspended in defined culture medium.
(§3) Viable cells were counted in a Neubauer cytometer using the trypan blue exclusion test (Sigma) and seeded at a density of 30 000 cells/well in 96 well-plates (Nunc). Wells were pre-coated with poly-L-lysine (10 μg/ml, Sigma P2636) in ultra pure sterile water (Merck Eurolab 60759.01).
(§4) Cells were allowed to adhere for 2 h and maintained in a humidified incubator at 37° C. in 5% CO2/95% air atmosphere.
(§5) After 5 days of culture, the culture medium was changed into a defined culture medium following the different conditions described below:
(§6) Test compound 7β-OH EPIA (1 nM, 10 nM and 100 nM)+cisplatin (3 μg/ml)
(§7) Reference compound NGF (10 ng/ml)+cisplatin (3 μg/ml)
(§8) Six wells per condition were carried out to assess neuronal survival. After 48 hours and 72 hours of incubation, the neuronal cells were fixed for 5 minutes in an ethanol/acetic acid solution (95%/5%) at −20° C. and rinsed 3 times in PBS.
(§9) Cell bodies of sensory neurones were labelled by monoclonal anti MAP-2 antibody (Sigma M4403) and the neurite of sensory neurones were labelled by monoclonal β-Tubulin antibody (Sigma T8660). These antibodies were diluted at 1:400 in incubation solution (PBS with 5% of FCS and 0.1% of saponin, Sigma S-7900). These antibodies specifically label neurone cell bodies and neuritis, respectively.
(§10) After 2 hours of incubation, the cells were washed in PBS and incubated with Alexa Fluor 488 goat anti mouse IgG (Molecular Probes A11001) diluted at 1:300 in incubation solution to reveal the MAP-2 and the β-Tubulin antibodies. Cell nuclei were stained with a fluorescent marker (Hoechst staining solution, SIGMA H6024, 1 μg/ml in incubation solution during 1 hour).
(§11) For each condition, 2 pictures per well (12 pictures per condition) were taken using In Cell Analyzer 1000 (Amersham Biosciences) controlled by the computer software In Cell Analyzer 1000 3.2. For the MAP-2 labelling, the magnification was ×10, for the β-Tubulin labelling, the magnification was ×20. For each labelling, all the images were taken in the same conditions.
(§12) Analysis of the number of cell bodies labelled with anti-MAP-2 antibodies, and total length of neurites labelled with anti β-Tubulin antibodies, were carried out using In Cell Analyzer 1000 3.2.Workstation software. The results were expressed in percentage compared to the vehicle. The comparisons of each group were carried out using the unpaired T test.

Assay [3] concerns rat sensory neurones. The assay is described as follows: Cisplatin-induced neuronal cell death, number of cell bodies per field in dorsal root ganglia sensory neurones (anti MAP-2). Particulars: 10 ng/ml, cisplatin 3 μg/ml. The method, then:
as §1
neurone cell bodies stained with an anti MAP 2 antibody (microtubule associated protein 2)
as §2, §3, §4, §5, §6, §7, §8, §9, §10, §11, §12

Several values for one entry are separate records, joined by “and”; a condition that tells them apart may be missing. Equal entries are not always repeated.

`COc1ccc2c(c1)c(CC(=O)O)c(C)n2C(=O)c1ccc(Cl)cc1` [Indomethacin]: the “antagonism of the protective effect of 7β-OH-EPIA” value in the assay on PC-12 cells (10 μM indomethacin with 1 μM and 10 μM 7β-OH-EPIA) was “fully antagonised”. Further, the “decrease in cell death” value with PC-12 cells (10 μM) is reported as “no direct effect”; in the assay on PC-12 cells (100 μM), 29%.
Turning to `C[C@]12N[C@H](Cc3ccccc31)c1ccccc12` [MK801], the “decrease in cell death” value in the assay with PC-12 cells (10 μM) is 62% and 42%.
“NGF: Nerve Growth Factor, a specific growth factor for sensory neurones; reference compound”: the “Neurites length per field, % Vehicle” value turned out to be 191% with rat sensory neurones [1] (10 ng/ml, 6 hours); 128% in the assay with rat sensory neurones [1] (10 ng/ml, 12 hours); 371% in the assay with rat sensory neurones [1] (10 ng/ml, 24 hours); 273% in the assay with rat sensory neurones [1] (50 ng/ml, 6 hours); 216% in the assay on rat sensory neurones [1] (50 ng/ml, 12 hours); 309% in the assay on rat sensory neurones [1] (50 ng/ml, 24 hours). Moreover, the “Neurites length per field, Mean” value turned out to be 195.2 μm in the assay on rat sensory neurones [1] (10 ng/ml, 6 hours); 381.3 μm with rat sensory neurones [1] (10 ng/ml, 12 hours); 819.9 μm with rat sensory neurones [1] (10 ng/ml, 24 hours); 279.1 μm with rat sensory neurones [1] (50 ng/ml, 6 hours); 644.3 μm with rat sensory neurones [1] (50 ng/ml, 12 hours); 682.1 μm in the assay with rat sensory neurones [1] (50 ng/ml, 24 hours). For the same molecule, the figures for the “% Control without cisplatin (neurite length)” value in the assay on rat sensory neurones [2] (48 hours) and in the assay with rat sensory neurones [2] (72 hours) were 117% and 113%, respectively. Besides, the Mean neurite length was 6362.44 μm with rat sensory neurones [2] (48 hours) and 6000.30 μm in the assay with rat sensory neurones [2] (72 hours). Further, the results for the “% Control without cisplatin (cell bodies)” value in the assay on rat sensory neurones [3] (48 hours) and in the assay with rat sensory neurones [3] (72 hours) were 96% and 1.2%, respectively. The results for the “number of cell bodies per field, Average” value with rat sensory neurones [3] (48 hours) and with rat sensory neurones [3] (72 hours) were 58.33 and 54.92, respectively.
